“Also recorded” adds a separate entry of the source. Read-outs that look alike come from different tables or passages of the source. Blank lines part the entries; values can stand above or below the molecule they belong to.
Experiments:
[1] = tested on: C-SdCen WT (C-terminal domain M93-F168 of SdCen); assay: ITC binding of target peptides to wild-type C-SdCen; design: species or system Scherffelia dubia; details: for TΔS / ΔG / Ka / ΔH: pH 7.5; for TΔS: from ΔG = ΔH − TΔS; for ΔG: ΔG = −RTln(1/Ka); for effect of calcium on binding (in words): presence vs absence of calcium; for Ka / ΔH: MOPS 50 mM, NaCl 100 mM, SD of fit in parenthesis
[2] = tested on: C-SdCen F109L; assay: ITC binding of target peptides to C-SdCen F109L; design: species or system Scherffelia dubia; details: for effect of F109L mutation on binding (in words) / factor of increase in change in enthalpy (ΔH) / factor of reduction of binding constant by F109L / factor of decrease in Ka by F109L: F109L vs WT; for factor of increase in change in enthalpy (ΔH) / factor of reduction of binding constant by F109L: EDTA; for factor of decrease in Ka by F109L: temperature not stated; for TΔS / ΔG: F109L, pH 7.5; for TΔS: from ΔG = ΔH − TΔS; for ΔG: ΔG = −RTln(1/Ka); for ΔΔH: difference in binding enthalpy SdCen wt vs F109L; for ΔΔH / ΔΔG: EDTA 2 mM; for ΔΔG: difference in free energy SdCen wt vs F109L
[3] = tested on: C-SdCen E144A; assay: ITC binding of target peptides to C-SdCen E144A; design: species or system Scherffelia dubia; details: for TΔS / ΔG: pH 7.5; for TΔS: from ΔG = ΔH − TΔS; for ΔG: ΔG = −RTln(1/Ka); for ΔΔH: difference in binding enthalpy SdCen wt vs E144A; for ΔΔH / ΔΔG: EDTA 2 mM; for ΔΔG: difference in free energy SdCen wt vs E144A; for factor of decrease in affinity by E144A: absence of calcium
[4] = tested on: C-SdCen F109L-E144A; assay: ITC binding of target peptides to C-SdCen F109L-E144A; design: species or system Scherffelia dubia; details: for effect of F109L-E144A mutation on binding (in words): F109L-E144A vs WT and single mutants; for TΔS / ΔG: F109L-E144A, pH 7.5; for TΔS: from ΔG = ΔH − TΔS; for ΔG: ΔG = −RTln(1/Ka); for ΔΔH: difference in binding enthalpy SdCen wt vs F109L-E144A; for ΔΔH / ΔΔG: EDTA 2 mM; for ΔΔG: difference in free energy SdCen wt vs F109L-E144A
[5] = biological target: T1, C-terminal domain of Scherffelia dubia centrin, wild type (Scherffelia dubia, UniProt Q06827 93-168); assay: ITC
T1 sequence (looked up): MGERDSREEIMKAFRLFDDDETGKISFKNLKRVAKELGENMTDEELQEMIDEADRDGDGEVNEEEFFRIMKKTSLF

[6] = biological target: T1, C-terminal domain of Scherffelia dubia …; assay: ITC; remark: listed apart in the source
[7] = WT, EDTA, 30 °C to 37 °C, becoming more negative
[8] = E144A, 30 °C, no Ca2+ (EDTA 2 mM)
[9] = E144A, 37 °C, no Ca2+ (EDTA 2 mM)

effect of temperature increase (in words) ([1]; WT, 30 °C to 37 °C, XPC vs Sfi1): a more pronounced effect on Sfi1
TΔS ([1]; WT, 30 °C, no Ca2+ (EDTA 2 mM)): -93.05 kJ/mol
ΔG ([1]; WT, 30 °C, no Ca2+ (EDTA 2 mM)): -38.7 kJ/mol
TΔS ([1]; WT, 37 °C, no Ca2+ (EDTA 2 mM)): -116.2 kJ/mol
factor of decrease in binding on temperature increase ([1]; WT, EDTA, 30 °C to 37 °C): 4
factor of decrease in TΔS on temperature increase [1, 7]: 1.3
factor of decrease in ΔH on temperature increase [1, 7]: 1.2
factor of increase in change in enthalpy (ΔH) ([2]; 30 °C): 1.4
factor of reduction of binding constant by F109L ([2]; 30 °C): 6
factor of increase in change in enthalpy (ΔH) ([2]; 37 °C): 1.4
factor of reduction of binding constant by F109L ([2]; 37 °C): 6
factor of decrease in Ka by F109L [2]: 6
TΔS ([2]; 30 °C, no Ca2+ (EDTA 2 mM)): -62.59 kJ/mol
ΔG ([2]; 30 °C, no Ca2+ (EDTA 2 mM)): -34.5 kJ/mol
TΔS ([2]; 37 °C, no Ca2+ (EDTA 2 mM)): -93.3 kJ/mol
ΔG ([2]; 37 °C, no Ca2+ (EDTA 2 mM)): -33.9 kJ/mol
ΔΔH ([2]; 30 °C): -34.7 kJ/mol
ΔΔH ([2]; 37 °C): -28 kJ/mol
ΔΔG ([2]; 30 °C): -4.27 kJ/mol
ΔΔG ([2]; 37 °C): -5.06 kJ/mol
effect of E144A mutation on binding (in words) ([3]; E144A vs WT, listed as Sfi1): had no effect on Sfi1 binding
TΔS [3, 8]: -88.12 kJ/mol
ΔG [3, 8]: -38.7 kJ/mol
TΔS [3, 9]: -112.5 kJ/mol
ΔΔH ([3]; 30 °C): -4.98 kJ/mol
ΔΔH ([3]; 37 °C): -3.64 kJ/mol
ΔΔG ([3]; 30 °C): -0.042 kJ/mol
TΔS ([4]; 30 °C, no Ca2+ (EDTA 2 mM)): -68.32 kJ/mol
ΔG ([4]; 30 °C, no Ca2+ (EDTA 2 mM)): -33.8 kJ/mol
TΔS ([4]; 37 °C, no Ca2+ (EDTA 2 mM)): -76.32 kJ/mol
ΔΔH ([4]; 30 °C): -29.7 kJ/mol
ΔΔH ([4]; 37 °C): -44.6 kJ/mol
ΔΔG ([4]; 30 °C): -4.98 kJ/mol
ΔΔG ([4]; 37 °C): -4.69 kJ/mol
Molecule: 677-SQHNRQLLRGALRRWK-692 [R18-Sfi1]
effect of calcium on binding (in words) ([1]; WT): the presence of calcium enhanced the binding
effect of calcium on binding (in words) ([1]; WT, listed as Sfi1): Calcium was not required for binding although its presence enhanced the binding
effect of F109L mutation on binding (in words) [2]: reduced the binding; also recorded: decreased the binding
effect of E144A mutation on binding (in words) ([3]; E144A vs WT): no effect on the binding of C-SdCen to R18-Sfi1
effect of F109L-E144A mutation on binding (in words) [4]: exhibited the same behavior as wild-type SdCen at both temperatures

Ka ([1]; WT, 30 °C, Ca2+ 2 mM): 59.4(9.10) 10^6 M^−1
ΔH ([1]; WT, 30 °C, Ca2+ 2 mM): −23.4(0.16) kcal/mol
TΔS ([1]; WT, 30 °C, Ca2+ 2 mM): -52.84 kJ/mol
ΔG ([1]; WT, 30 °C, Ca2+ 2 mM): -45.06 kJ/mol
factor of higher affinity for P17-XPC than for R18-Sfi1 ([1]; WT, 30 °C, EDTA): 7
ΔG ([1]; WT, 30 °C, no Ca2+ (EDTA 2 mM)): -43.56 kJ/mol
Ka ([1]; WT, 37 °C, Ca2+ 2 mM): 73.2(7.0) 10^6 M^−1
ΔH ([1]; WT, 37 °C, Ca2+ 2 mM): −23.36(0.08) kcal/mol
TΔS ([1]; WT, 37 °C, Ca2+ 2 mM): -50.96 kJ/mol
ΔG ([1]; WT, 37 °C, Ca2+ 2 mM): -46.78 kJ/mol
factor of higher affinity for P17-XPC than for R18-Sfi1 ([1]; WT, 37 °C, EDTA): 10
TΔS ([1]; WT, 37 °C, no Ca2+ (EDTA 2 mM)): -125.3 kJ/mol
difference in ΔH between P17-XPC and R18-Sfi1 ([1]; WT, EDTA, 30 °C and 37 °C): 13 kJ/mol
factor of decrease in binding on temperature increase ([1]; WT, EDTA, 30 °C to 37 °C): 3
factor of decrease in ΔH on temperature increase [1, 7]: 1.2
factor of increase in change in enthalpy (ΔH) ([2]; 30 °C): 1.7
factor of reduction of binding constant by F109L ([2]; 30 °C): 15
factor of increase in change in enthalpy (ΔH) ([2]; 37 °C): 1.4
factor of reduction of binding constant by F109L ([2]; 37 °C): 15
factor of decrease in Ka by F109L [2]: 15
TΔS ([2]; 30 °C, Ca2+ 2 mM): -20 kJ/mol
ΔG ([2]; 30 °C, Ca2+ 2 mM): -45.4 kJ/mol
TΔS ([2]; 30 °C, no Ca2+ (EDTA 2 mM)): -49.71 kJ/mol
ΔG ([2]; 30 °C, no Ca2+ (EDTA 2 mM)): -36.5 kJ/mol
TΔS ([2]; 37 °C, Ca2+ 2 mM): -25.9 kJ/mol
ΔG ([2]; 37 °C, Ca2+ 2 mM): -45.06 kJ/mol
ΔΔH ([2]; 30 °C): -55.2 kJ/mol
ΔΔH ([2]; 37 °C): -72.97 kJ/mol
ΔΔG ([2]; 30 °C): -7.07 kJ/mol
ΔΔG ([2]; 37 °C): -8.49 kJ/mol
factor of decrease in affinity by E144A ([3]; E144A vs WT, 30 °C): 3
factor of decrease in affinity by E144A ([3]; E144A vs WT, 37 °C): 4
ΔH compared to wild type (in words) ([3]; E144A vs WT, EDTA): the same as for the wild type
effect of E144A mutation on binding (in words) ([3]; E144A vs WT, listed as XPC): reduced the binding to XPC
TΔS ([3]; E144A, 30 °C, Ca2+ 2 mM): -39.2 kJ/mol
ΔG ([3]; E144A, 30 °C, Ca2+ 2 mM): -46.36 kJ/mol
TΔS [3, 8]: -82.76 kJ/mol
ΔG [3, 8]: -40.7 kJ/mol
TΔS ([3]; E144A, 37 °C, Ca2+ 2 mM): -57.57 kJ/mol
ΔG ([3]; E144A, 37 °C, Ca2+ 2 mM): -47.74 kJ/mol
TΔS [3, 9]: -119.9 kJ/mol
ΔΔH ([3]; 30 °C): -18 kJ/mol
ΔΔH ([3]; 37 °C): -9.2 kJ/mol
ΔΔG ([3]; 30 °C): -2.89 kJ/mol
TΔS ([4]; 30 °C, Ca2+ 2 mM): -15.4 kJ/mol
ΔG ([4]; 30 °C, Ca2+ 2 mM): -43.6 kJ/mol
ΔG ([4]; 30 °C, no Ca2+ (EDTA 2 mM)): -32.7 kJ/mol
TΔS ([4]; 37 °C, Ca2+ 2 mM): -27.6 kJ/mol
ΔG ([4]; 37 °C, Ca2+ 2 mM): -44.31 kJ/mol
TΔS ([4]; 37 °C, no Ca2+ (EDTA 2 mM)): -55.27 kJ/mol
ΔΔH ([4]; 30 °C): -48.5 kJ/mol
ΔΔH ([4]; 37 °C): -81.2 kJ/mol
ΔΔG ([4]; 30 °C): -10.9 kJ/mol
ΔΔG ([4]; 37 °C): -11.2 kJ/mol
Molecule: 846-NWKLLAKGLLIRERLKR-863 [P17-XPC]
effect of calcium on binding (in words) ([1]; WT): the presence of calcium enhanced the binding
effect of calcium on binding (in words) ([1]; WT, listed as XPC): Calcium was not required for binding although its presence enhanced the binding; also recorded: addition of calcium enhanced the affinity
affinity comparison XPC vs Sfi1 (in words) ([1]; centrin, ITC, present and previous work): better for XPC than for other targets such as Sfi1
effect of F109L mutation on binding (in words) ([2]; listed as XPC): reduced the binding; also recorded: decreased the binding
effect of calcium on affinity (in words) ([3]; E144A, presence vs absence of calcium): addition of calcium enhanced the affinity
effect of F109L-E144A mutation on binding (in words) ([4]; listed as XPC): enhanced the negative effect of the two single mutations on XPC binding; also recorded: further reduced XPC binding

Ka [5]: 4.5e+06 M⁻¹
dH [5]: -132 kJ/mol
Ka [6]: 1.23e+06 M⁻¹
dH [6]: -155 kJ/mol
Molecule: Ac-SQHNRQLLRGALRRWK-NH2 [R18-HsSfi1 peptide]

From PMC3871271 (FEBS Open Bio, 2013)
